Paper PMC10810434, “Thymoquinone-protoflavone hybrid molecules as potential antitumor agents” (PLOS ONE, 2024)
Where two headings read alike, the source gives them in different places.

What was measured:
MDA-MB-231 = assay: In vitro antiproliferative MTT assay on MDA-MB-231; type: cell-based, human; conditions: Homo sapiens, MDA-MB-231, up to 72 hours, mean of two independent measurements with three replicates each, read-out: Calculated IC50 ± SEM, MDA-MB-231
Source text: (§1) Gynecological cancer cell lines of human origin including breast cancer like the triple negative MDA-MB-231 and estrogen receptor positive MCF-7, […] cervical adenocarcinoma (HeLa), and human glioblastoma (U-87) cell lines were used as in vitro models to study the antiproliferative effects of the evaluated compounds. All cell lines were cultivated in T-75 flasks in a minimal essential medium (MEM) supplemented with 10% heat-inactivated fetal bovine serum (FBS), 1% antibiotic-antimycotic mixture (penicillin-streptomycin-amphotericin B) and 1% non-essential amino acids. Non-cancerous human lung fibroblast cell line (MRC-5) was maintained in low glucose Dulbecco’s Modified Eagle Medium (DMEM) supplemented with 20% heat-inactivated FBS, 1% antibiotic-antimycotic mixture and 4 mM L-glutamine. The cells were incubated at 37°C in 5% CO^2 incubator. The cells were seeded in 96-well plates at a density of 5 x 10^3 in 100 μL per well, except for the U-87 and MRC-5 that were seeded at 1 x 10^4 density and incubated at the same conditions for overnight to allow the cells’ attachment to the well’s bottom before the treatment.
(§2) The compounds were dissolved in dimethyl sulfoxide (DMSO) as 10 mM standard stock solutions and kept at -20°C with minimum light exposure. Immediately before each experiment, the stock solution was used and diluted with a culture medium to get the final concentrations. The values of half-maximal inhibitory concentration (IC50) were determined by exposure of the cells into eight different concentrations of each tested compound (0.39, 0.78, 1.56, 3.125, 6.25, 12.5, 25 and 50 μM). Temozolomide (TMZ) and cisplatin were used as positive controls in the case of U-87 and the gynecological cell lines, respectively. The negative control wells included the cells with only MEM treatment. The plates were incubated for up to 72 hours under the same abovementioned incubation conditions. The colorimetric MTT assay was used to assess the compounds’ effect on cell proliferation. Briefly, 20 μL of MTT solution ([3-(4,5-dimethylthiazol-2-yl)-2,5-diphenyltetrazolium bromide], 5 mg/mL in PBS, Duchefa Biochemie BV, Haarlem, The Netherlands) was added to each well including the negative controls and kept under the usual incubation circumstances for additional four hours. Subsequently, the media was carefully aspirated and 100 μL of DMSO was added to each well and the plates were gently shaken for 30 min to solubilize the precipitated crystals of purple formazan. Absorbance was measured at a wavelength of 545 nm using a microplate UV-VIS reader (SPECTROstar Nano, BMG Labtech GmbH, Offenburg, Germany). The same procedure was performed using MRC-5 cells to determine the cancer selectivity of the most promising test compounds.
(§3) Cell viability data were collected from two separate experiments in triplicates and evaluated using GraphPad Prism 9.5.1 (GraphPad Software Inc., San Diego, CA, USA). The half-maximal inhibitory concentration (IC50) values were determined using the log inhibitor vs normalized response nonlinear regression model. Difference between the IC50 values of a hybrid and its corresponding fragments’ experimental combination was statistically evaluated using unpaired T-test. Cancer selectivity of the most promising test compounds was characterized by calculating and comparing their selectivity index (SI). The value of the parameter derives from the ratio of IC50 value of test compound on MRC-5 cells and that on U-87 cells. The higher the value, the better the cancer selectivity of the test compound.

MCF-7 = assay: In vitro antiproliferative MTT assay on MCF-7; type: cell-based, human; conditions: Homo sapiens, MCF7, up to 72 hours, mean of two independent measurements with three replicates each, read-out: Calculated IC50 ± SEM, MCF-7
Source text: as §1, §2, §3

HeLa = assay: In vitro antiproliferative MTT assay on HeLa; type: cell-based, human; conditions: Homo sapiens, HeLa, up to 72 hours, mean of two independent measurements with three replicates each, read-out: Calculated IC50 ± SEM, HeLa
Source text: as §1, §2, §3

U-87 glioblastoma cells = assay: In vitro antiproliferative MTT assay on U-87; type: cell-based, human; conditions: Homo sapiens
Source text: as §1, §2, §3

U-87 cells = assay: Combination assay: equimolar fragment mixtures vs hybrids on U-87; type: cell-based, human; conditions: U-87 cells
Description: as §2
Combination study was performed by treating cells with equimolar mixtures of the abovementioned fragments or their hybrids, and corresponding cell viability data were comparatively evaluated. In this bioassay, at least two separate experiments were performed, each in triplicate. The dataset was then subjected to appropriate statistical analysis. The calculated IC50 values were subsequently employed to quantitatively assess the extent of pharmacological benefit obtained through the hybridization of fragments in comparison to the cytotoxic effect produced by the experimental combination of PA or its derivatives and TQ fragments.
as §3

[1] = tested on: MRC-5 non-cancerous human lung fibroblast cell line; assay: In vitro antiproliferative MTT assay on MRC-5 (cancer selectivity); type: cell-based; conditions: for IC50: MRC5, Table 3, non-cancerous human lung fibroblasts, read-out: Calculated IC50 ± SEM, MRC-5
Source text: as §1, §2, §3

[2] = MTT, up to 72 hours, mean of two independent measurements with three replicates each, read-out: Calculated IC50 ± SEM, U-87
[3] = Table 3, U-87 glioblastoma, read-out: Calculated IC50 ± SEM, U-87 (Table 3)

Row | Compound | IC50 (MDA-MB-231) | IC50 (MCF-7) | IC50 (HeLa) | IC50 (U-87 glioblastoma cells; [2]) | Hybrid vs corresponding 1:1 fragment mixture, antiproliferative activity in words (U-87 cells) | IC50 (U-87 glioblastoma cells; [3]) | IC50 [1] | Selectivity index SI = IC50 (MRC-5)/IC50 (U-87) ([1]; MRC-5 vs U-87)
1 | CCCCOC1(c2cc(=O)c3c(O)cc(OC(=O)CCC4=C(C(C)C)C(=O)C=C(C)C4=O)cc3o2)C=CC(=O)C=C1 [Compound 17, 2-(1-butoxy-4-oxocyclohexa-2,5-dien-1-yl)-5-hydroxy-4-oxo-4H-chromen-7-yl 3-(2-isopropyl-5-methyl-3,6-dioxocyclohexa-1,4-dien-1-yl)propanoate] | 1.08 ± 0.08 µM | 2.7 ± 0.09 µM | 3.08 ± 0.46 µM | 8.65 ± 1.15 µM | – | – | – | –
2 | CCOC1(c2cc(=O)c3c(O)cc(OC(=O)CCC4=C(C(C)C)C(=O)C=C(C)C4=O)cc3o2)C=CC(=O)C=C1 [Compound 16, 2-(1-ethoxy-4-oxocyclohexa-2,5-dien-1-yl)-5-hydroxy-4-oxo-4H-chromen-7-yl 3-(2-isopropyl-5-methyl-3,6-dioxocyclohexa-1,4-dien-1-yl)propanoate] | 1.98 ± 0.06 µM | 4.11 ± 0.34 µM | 1.71 ± 0.16 µM | 6.06 ± 0.4 µM | no apparent difference | – | – | –
3 | CC1=CC(=O)C(C(C)C)=C(CCC(=O)O)C1=O [Compound 4, 3-(2-isopropyl-5-methyl-3,6-dioxocyclohexa-1,4-dien-1-yl)propanoic acid] | 12.4 ± 0.37 µM | > 100 µM | > 100 µM | 88.7 ± 5.17 µM | – | 88.7 ± 5.17 µM | 40.2 ± 1.04 µM | –
4 | CCCCOC1(c2cc(=O)c3c(O)cc(OC(=O)CCC4=C(C)C(=O)C=C(C(C)C)C4=O)cc3o2)C=CC(=O)C=C1 [Compound 13, 2-(1-butoxy-4-oxocyclohexa-2,5-dien-1-yl)-5-hydroxy-4-oxo-4H-chromen-7-yl 3-(5-isopropyl-2-methyl-3,6-dioxocyclohexa-1,4-dien-1-yl)propanoate] | 0.99 ± 0.05 µM | 1.68 ± 0.16 µM | 1.4 ± 0.25 µM | 3.43 ± 0.25 µM | – | – | – | –
5 | CC1=CC(=O)C(C(C)C)=CC1=O [Compound 2, 2-isopropyl-5-methylcyclohexa-2,5-diene-1,4-dione] | 7.02 ± 0.17 µM | 24 ± 1.37 µM | > 100 µM | 39.1 ± 3.53 µM | – | – | – | –
6 | O=C1C=CC(O)(c2cc(=O)c3c(O)cc(O)cc3o2)C=C1 [Compound 6, Protoapigenone] | 0.57 ± 0.07 µM | 0.66 ± 0.06 µM | 1.8 ± 0.09 µM | 1.73 ± 0.11 µM | – | 1.73 ± 0.11 µM | 2.62 ± 0.2 µM | 1.51
7 | COC1(c2cc(=O)c3c(O)cc(OC(=O)CCC4=C(C(C)C)C(=O)C=C(C)C4=O)cc3o2)C=CC(=O)C=C1 [Compound 15, 5-hydroxy-2-(1-methoxy-4-oxocyclohexa-2,5-dien-1-yl)-4-oxo-4H-chromen-7-yl 3-(2-isopropyl-5-methyl-3,6-dioxocyclohexa-1,4-dien-1-yl)propanoate] | 3.53 ± 0.17 µM | 5.44 ± 1.32 µM | 6.78 ± 0.28 µM | 18.9 ± 3.42 µM | no apparent difference | – | – | –
8 | CC1=C(CCC(=O)O)C(=O)C(C(C)C)=CC1=O [Compound 3, 3-(5-isopropyl-2-methyl-3,6-dioxocyclohexa-1,4-dien-1-yl)propanoic acid] | 38.2 ± 2.81 µM | > 100 µM | > 100 µM | 77.7 ± 1.61 µM | – | – | – | –
9 | CCOC1(c2cc(=O)c3c(O)cc(OC(=O)CCC4=C(C)C(=O)C=C(C(C)C)C4=O)cc3o2)C=CC(=O)C=C1 [Compound 12, 2-(1-ethoxy-4-oxocyclohexa-2,5-dien-1-yl)-5-hydroxy-4-oxo-4H-chromen-7-yl 3-(5-isopropyl-2-methyl-3,6-dioxocyclohexa-1,4-dien-1-yl)propanoate] | 2.15 ± 0.08 µM | 3.21 ± 0.07 µM | 2.35 ± 0.15 µM | 8.22 ± 0.73 µM | – | – | – | –
